The values that follow are results of earlier work, collected in patent publication US8569328B1, “Compositions and methods comprising tilidine or related compounds and dextromethorphan” (Antecip Bioventures II LLC, priority 2011, dated 2013).

Data set [1] has as its target cytochrome P450 isozyme CYP2D6 (Homo sapiens, UniProt P10635). The settings on record: in vitro.
For data set [2] the following is noted: three large multicenter randomized studies; dextromethorphan added to morphine.

cytochrome P450 isozyme CYP2D6, sequence (P10635 whole entry): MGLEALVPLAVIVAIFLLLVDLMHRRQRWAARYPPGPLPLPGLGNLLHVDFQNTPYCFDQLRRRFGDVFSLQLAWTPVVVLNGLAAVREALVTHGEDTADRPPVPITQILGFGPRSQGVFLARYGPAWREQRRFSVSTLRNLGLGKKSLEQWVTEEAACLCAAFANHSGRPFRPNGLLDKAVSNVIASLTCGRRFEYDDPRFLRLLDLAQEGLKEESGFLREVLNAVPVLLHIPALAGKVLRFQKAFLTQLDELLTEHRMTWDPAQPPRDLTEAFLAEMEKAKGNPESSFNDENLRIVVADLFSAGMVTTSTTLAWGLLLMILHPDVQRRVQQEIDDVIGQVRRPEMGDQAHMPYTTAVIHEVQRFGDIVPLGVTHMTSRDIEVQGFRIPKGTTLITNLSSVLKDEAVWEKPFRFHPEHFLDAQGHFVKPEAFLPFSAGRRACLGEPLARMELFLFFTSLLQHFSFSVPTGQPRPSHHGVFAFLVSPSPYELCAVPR

In the case of `CCOC(=O)C1(c2ccccc2)CCC=CC1N(C)C` (stereo not drawn) [tilidine], the “inhibition of cytochrome P450 isozymes including CYP2D6” value in data set [1] is “inhibit”.
On to nortilidine, for which the “inhibition of cytochrome P450 isozymes including CYP2D6” value in data set [1] is “inhibit”.
As to `COc1ccc2c(c1)[C@]13CCCC[C@@H]1[C@H](C2)N(C)CC3` [dextromethorphan], in data set [2], the “benefit from the addition of dextromethorphan to morphine (enhancement of opioid analgesia)” value is “failed to show any benefit”.
